From patent US20040033273A1, “Withasol and methods of use” (AyurCore, Inc., priority 2001, published 2004)
Where two headings read alike, the source gives them in different places.

How the values were obtained:
[1] = test system: BALB/c mouse with ascitic sarcoma (S-180)
Source text: A study was then undertaken to determine the kinetics of cyclophosphamide treatment with respect to myelosuppression and immunosuppression. This step four aspect of the protocol establishes a time response curve for cyclophosphamide and determines optimal time for collection of blood samples and evaluation of hematological and serological parameters under the aforementioned conditions.
Mice were antigenically challenged with 0.5 cc of RBC suspension (1.0×10^8 cells/cc), intraperitoneally on day 1 as previously described. Mice from all groups were sensitized with RBC and a challenge dose was given on day 10.
Antibody titres were estimated using 96 well, U-bottom microtiter plates, double diluting serum samples and using 10% Human RBC suspension and complement (guinea pig serum).

[2] = test system: BALB/c mouse implanted with ascitic sarcoma (S-180), CP treated; details: for Hb / Platelet Count (×10^3/mcl) / RBC Count (×10^6/mcl) / WBC Difference Count (%) Lymphocytes / WBC Difference Count (%) Polymorph / WBC Total Count (×10^3/mcl) / CF Titre (Log2) / HA Titre (Log2) / Difference in Weight (g) from Day 1 to 16: mean +/- SD
[3] = test system: BALB/c mouse with ascitic sarcoma (S-180); details: for survival rate: CP 150 mg/kg ip on day 11, compared with the other dose regimens
[4] = test system: BALB/c mouse implanted with ascitic sarcoma, CP treated; details: for Hb / Platelet Count (×10^3mcl) / RBC Count (×10^6/mcl) / WBC Difference Count (%) Lymphocytes / WBC Difference Count (%) Polymorph / WBC Total Count (×10^3/mcl) / CF Titre (Log2) / HA Titre (Log2) / Difference in Weight (g) from Day 1 to 16: mean +/- SD
Protocol: This example describes dosing studies of WITHASOL in cyclophosphamide (CP) treated antigenically challenged BALB/c mouse animals implanted with ascitic sarcoma.
Following the established protocol, tumor was implanted on day 0. Test drugs as suspensions in 2.0% sterile CMC (vehicle) were prepared by Bio-Ved Laboratories. Antigenically sensitized (day 1) and challenged (day 10) mice, received test substances from day 1 to day 15 per oral route. Animals received appropriate vehicle (2.0% CMC) or CP (150 mg/kg) i.p. on day 11 and blood was collected on day 16. Body weights and gross observations were monitored during treatment.
Four doses, 400 mg/kg, 200 mg/kg, 100 mg/kg and 50 mg/kg of WITHASOL coded as R-1, R-2, R-3 and R-4, respectively, were used for this study. Decoding was done after the study was completed.
Data analysis was carried out using ANOVA single factor @<0.05 for comparison of the groups.

[5] = CP 150 mg/Kg ip day 11 vs vehicle, days 13, 15, 17, 19 and 21
[6] = Tumor +, CP +: CP 150 mg/kg ip day 11, coded drug 100 mg/kg (vehicle for CP alone) po day 1-15, blood day 16
[7] = Tumor +, CP +: CP 150 mg/kg ip day 11, coded drug 100 mg/kg (vehicle for CP alone) po day 1-15, serum day 16
[8] = Tumor −, CP +, vehicle: CP 150 mg/kg ip day 11, blood day 16
[9] = Tumor −, CP +, vehicle: CP 150 mg/kg ip day 11, serum day 16
[10] = Tumor −, CP +, vehicle: CP 150 mg/kg ip day 11
[11] = groups I and II: CP 150 mg/kg ip day 11 in tumor free animals, day 16
[12] = groups III and IV: CP 150 mg/kg ip day 11 in tumor-bearing animals
[13] = groups III and IV: CP 150 mg/kg ip day 11 in tumor-bearing animals, day 16
[14] = groups I and II: CP 3.0 mg/kg po days 4 to 19 vs vehicle, blood day 20
[15] = groups III and IV: CP 100 mg/kg ip days 7, 9, 11 vs vehicle, blood day 20
[16] = groups V and VI: CP 150 mg/kg ip day 11 vs vehicle, blood day 20
[17] = Tumor +, CP +: CP 150 mg/kg ip day 11, WITHASOL po day 1-15 at 400 (R-1), 200 (R-2), 100 (R-3), 50 (R-4) mg/kg or vehicle (CP alone), blood day 16
[18] = Tumor +, CP +: CP 150 mg/kg ip day 11, WITHASOL po day 1-15 at 400 (R-1), 200 (R-2), 100 (R-3), 50 (R-4) mg/kg or vehicle (CP alone), day 16
[19] = Tumor −, CP +, vehicle: CP 150 mg/kg ip day 11, day 16
[20] = groups I and II: CP 150 mg/kg ip day 11 in tumor-free animals, day 16

O=P1(N(CCCl)CCCl)NCCCO1 (stereo not shown) [CP, cyclophosphamide]
time of maximum myelosuppressive and immunosuppressive effect ([1]; CP 150 mg/Kg ip day 11, day after tumor implantation): day 15, or in between day 15 and day 17
change in platelet counts ([1]; CP 150 mg/Kg ip day 11 vs vehicle): unaffected
change in hemagglutinating antibody (HA) titers [1, 5]: decrease
change in hemolytic antibody titers (complement fixing-CF) [1, 5]: decrease
change in white blood cell counts ([1]; CP 150 mg/Kg ip day 11 vs vehicle, on day 13 and on day 15): significantly decreased
change in hemoglobin content ([1]; CP 150 mg/Kg ip day 11 vs vehicle, on day 17): significant decrease
change in red blood cell counts ([1]; CP 150 mg/Kg ip day 11 vs vehicle, on day 19 (P<0.09)): increased
tumor relapse ([1]; after a few days of cyclophosphamide treatment (150 mg/Kg ip day 11), animals died from tumor regrowth): Tumor relapse was observed
tumor regression ([1]; single cyclophosphamide dose of 150 mg/Kg ip on day 11): regression of tumor
Hb [2, 6]: 11.07 ± 3.812 g/dL
Platelet Count (×10^3/mcl) [2, 6]: 614.17 +/− 287.466 ×10^3/mcl
RBC Count (×10^6/mcl) [2, 6]: 3.54 +/− 1.332 ×10^6/mcl
WBC Difference Count (%) Lymphocytes [2, 6]: 58.18 +/− 8.634%
WBC Difference Count (%) Polymorph [2, 6]: 41.42 +/− 8.634%
WBC Total Count (×10^3/mcl) [2, 6]: 4.53 +/− 0.797 ×10^3/mcl
CF Titre (Log2) [2, 7]: 1.83 +/− 0.408 Log2
HA Titre (Log2) [2, 7]: 2.17 +/− 0.837 Log2
Difference in Weight (g) from Day 1 to 16 ([2]; Tumor +, CP +: S-180 bearing antigen-challenged mice, CP 150 mg/kg ip day 11, coded drug 100 mg/kg (vehicle for CP alone) po day 1-15): -0.83 ± 2.563 g
Hb [2, 8]: 13.8 ± 1.103 g/dL
Platelet Count (×10^3/mcl) [2, 8]: 966.33 +/− 324.879 ×10^3/mcl
RBC Count (×10^6/mcl) [2, 8]: 4.37 +/− 0.718 ×10^6/mcl
WBC Difference Count (%) Lymphocytes [2, 8]: 63.73 +/− 2.7897%
WBC Difference Count (%) Polymorph [2, 8]: 36.2 +/− 2.7897%
WBC Total Count (×10^3/mcl) [2, 8]: 3.8 +/− 1.226 ×10^3/mcl
CF Titre (Log2) [2, 9]: 1.00 Log2
HA Titre (Log2) [2, 9]: 1.5 +/− 5.48 Log2
Difference in Weight (g) from Day 1 to 16 [2, 10]: -0.5 ± 0.837 g
change in body weights ([2]; groups I and II: CP 150 mg/kg ip day 11 in tumor free animals): decrease
change in HA antibody titers [2, 11]: decreased
change in HL antibody titers [2, 11]: decreased
change in hemoglobin content [2, 11]: No significant change
change in lymphocyte percent [2, 11]: decreased
change in platelet counts [2, 11]: No significant change
change in polymorph percent [2, 11]: Increased
change in red cell counts [2, 11]: lowered
change in white cell total counts [2, 11]: lowered
change in body weight [2, 12]: decreased
change in HA antibody titers [2, 13]: decreased
change in HL antibody titers [2, 13]: decreased
change in hemoglobin content [2, 13]: No significant change
change in lymphocyte percentage [2, 13]: increase
change in platelet counts [2, 13]: Decreased
change in polymorph percentage [2, 13]: Decreased
change in red cell counts [2, 13]: No significant change
change in white counts [2, 13]: Decreased
survival rate [3]: maximum survival rate
survival rate ([3]; listed as cyclophosphamide): greatest survival rate
change in weight of animals ([3]; all three CP doses (3.0 mg/kg po days 4-19; 100 mg/kg ip days 7, 9, 11; 150 mg/kg ip day 11) vs vehicle, t test): significant decrease
change in hemoglobin content [3, 14]: no significant change
change in lymphocytes [3, 14]: no significant change
change in monocyte counts [3, 14]: significantly increased
change in neutrophil counts [3, 14]: significantly lowered
change in platelet counts [3, 14]: no significant change
change in red cell counts [3, 14]: no significant change
change in total white cell counts [3, 14]: significantly lowered
change in hemoglobin content [3, 15]: no significant change
change in platelet counts [3, 15]: no significant change
change in red cell counts [3, 15]: no significant change
change in white cell differential counts [3, 15]: no significant change
change in white cell total counts [3, 15]: no significant change
change in hemoglobin content [3, 16]: no significant change
change in monocytes [3, 16]: no significant change
change in neutrophils [3, 16]: significant increase
change in platelet counts [3, 16]: no significant change
change in red cell counts [3, 16]: no significant change
change in white cell counts [3, 16]: significant increase
Survival on Day 16 (Day of Bleeding): No. of Animals Survived ([4]; Tumor +, CP + groups: CP 150 mg/kg ip day 11, WITHASOL po day 1-15 at 400 (R-1), 200 (R-2), 100 (R-3), 50 (R-4) mg/kg or vehicle (CP alone)): 8
Hb [4, 17]: 12.8 ± 1.03 g/dL
Platelet Count (×10^3mcl) [4, 17]: 906.0 +/− 312.76 ×10^3mcl
RBC Count (×10^6/mcl) [4, 17]: 3.79 +/− 0.46 ×10^6/mcl
WBC Difference Count (%) Lymphocytes [4, 17]: 4.19 +/− 8.70%
WBC Difference Count (%) Polymorph [4, 17]: 58.1 +/− 8.70%
WBC Total Count (×10^3/mcl) [4, 17]: 6.2 +/− 2.17 ×10^3/mcl
CF Titre (Log2) [4, 18]: 3.5 +/− 0.53 Log2
HA Titre (Log2) [4, 18]: 3.3 +/− 0.89 Log2
Difference in Weight (g) from Day 1 to 16 ([4]; Tumor +, CP +: CP 150 mg/kg ip day 11, WITHASOL po day 1-15 at 400 (R-1), 200 (R-2), 100 (R-3), 50 (R-4) mg/kg or vehicle (CP alone)): 4.9 ± 2.36 g
Survival on Day 16 (Day of Bleeding): No. of Animals Survived ([4]; Tumor −, CP +, vehicle (group II)): 10
Hb [4, 8]: 12.9 ± 1.40 g/dL
Platelet Count (×10^3mcl) [4, 8]: 1170.2 +/− 152.33 ×10^3mcl
RBC Count (×10^6/mcl) [4, 8]: 4.04 +/− 0.54 ×10^6/mcl
WBC Difference Count (%) Lymphocytes [4, 8]: 76.7 +/− 4.35%
WBC Difference Count (%) Polymorph [4, 8]: 23.3 +/− 4.35%
WBC Total Count (×10^3/mcl) [4, 8]: 3.6 +/− 0.67 ×10^3/mcl
CF Titre (Log2) [4, 19]: 4.0 +/− 0.82 Log2
HA Titre (Log2) [4, 19]: 4.4 +/− 0.52 Log2
Difference in Weight (g) from Day 1 to 16 [4, 10]: 0.4 ± 0.52 g
change in body weights ([4]; groups I and II: CP 150 mg/kg ip day 11 in tumor-free animals): decreased
change in HA antibody titres [4, 20]: decreased
change in HL antibody titres [4, 20]: decreased
change in hemoglobin content [4, 20]: decreased
change in platelet counts [4, 20]: increased
change in red cell counts [4, 20]: decreased
change in white cell differential counts [4, 20]: no significant change
change in white cell total counts [4, 20]: decreased
change in body weights [4, 12]: decreased
change in HA antibody titres [4, 13]: decreased
change in HL antibody titres [4, 13]: decreased
change in hemoglobin content [4, 13]: no significant change
change in lymphocyte percentage [4, 13]: increased
change in platelet counts [4, 13]: no significant change
change in polymorph percentage [4, 13]: decrease
change in red cell counts [4, 13]: no significant change
change in white cell total counts [4, 13]: decrease
